Experimental data reported in patent US20260124268A1 (priority 2019, published 2026).
In brackets after ≈: the same amount, converted by molar mass. Several values for one entry are separate records, joined by “and”; a condition that tells them apart may be missing. Equal values may be shown once. Read-outs that look alike come from different tables or passages of the source.

Key:
MRSA 81M = assay: microbe, parasite or virus in culture; assay type: cell-based; conditions: Staphylococcus aureus, 24 h
MRSA LA = assay: microbe, parasite or virus in culture; assay type: cell-based; conditions: Staphylococcus aureus, 24 h
[1] = Evaluation of litter score (percent caked litter); assay type: in vivo, broilers (male Cobb 500); conditions: SF: salinomycin 0.042% in feed; day 28
Method: Evaluation of Litter Score. The litter from each pen was evaluated on day 28 of the trial. The litter was evaluated based on percentage of caked litter in the pen. The percentages were grouped from 0-19, 20-39, 40-59, 60-79, and 80-100%. The mid-value from the percentage range was used to calculate the average pen litter score.

[2] = system: Clostridium perfringens (CL-15, Type-A); assay type: in vivo, broilers (male Cobb 500); conditions: SF: salinomycin 0.042% in feed, day 21
[3] = system: Clostridium perfringens (CL-15, Type-A); assay type: in vivo, broilers (male Cobb 500); conditions: SF: salinomycin 0.042% in feed
[4] = Growth performance and feed efficiency of challenged broilers; assay type: in vivo, broilers (male Cobb 500); conditions: SF: salinomycin 0.042% in feed; for Avg. daily gain / Weight gain: per bird
Source text: Bird Placement. The birds in this study were sourced from a commercial hatchery and were housed at the Colorado Quality Research facility (CQR). Healthy male Cobb 500 were used in this study and were vaccinated for Mareks at the hatchery and upon arrival at CQR the birds were vaccinated for Newcastle and Infectious Bronchitis and were randomly divided into five treatments. At placement 24 birds were placed into each pen with 11 replicates per treatment. On day eight birds were culled or replaced as needed to have 22 birds per pen with the pen being the statistical unit. The treatments were assigned to blocks and randomized within blocks. All birds in this experiment were discarded on site. All data was collected by the Colorado Quality Research (CQR) staff. The protocol MS-18-1 was approved by the CQR IACUC committee.
Basal and Experimental Diets. The starter, grower, and basal diets were manufactured at the CQR feed mill using CQR formulated diets and described in Table 1. The feed was made and stored in bulk. The final experimental diet mixing, pelleting and crumbling was conducted at CQR using a 500-lb capacity vertical mixer (Seedburo, Golden Valley, MN), a 4000-lb capacity vertical mixer (Prater, Bolingbrook, IL) and/or a 14,000-lb horizontal mixer (H&S Manufacturing, Marshfield, WI) and a California pellet mill (CPM Co., Crawfordsville, IN). The feed was stored in 50-lb feed sacks until needed.
The product was made fresh daily and administered in the water using a liquid medicator (Farmer Boy Ag, Myerstown, PA). A different stock solution was prepared for each treatment and the stock solutions were weighed each day to determine the amount of product consumed. The stock solutions were adjusted accordingly to ensure that the correct dose has been administered based on water consumption. The antibiotic control SF birds were administered Salinomycin (Sacox 60, Phibro Animal Health Corp., Teaneck, NJ) in the feed at 0.042% for the whole experimental period. […] If abnormal conditions or abnormal behavior is noted at any of the twice-daily observations they were documented and added to the study records. The maximum and minimum temperatures were recorded daily. The dead birds were collected and counted each day from each pen. The mortality was recorded on pen sheet and the cause of death was recorded. The pen mortality and the NE-associated mortality were calculated based on total mortality and as a percentage. The percentages were calculated based on the number of re-count birds on day 8. The birds were weighed on day 0, 17, 28, and 35 and the average daily gain was calculated for each of these time periods. The final pen weight was also measured. The amount of feed consumed was calculated from the starter feed (DO-17), the grower feed (D18-28), finisher feed (D29-35), and over the whole period (DO-35). The feed efficiency and adjusted feed efficiency were calculated to compare different growth periods. On day 21, 5 birds from each pen were randomly selected using a first caught method. The birds were sacrificed and evaluated for intestinal lesions to score the severity of the lesion scores using the scale in Table 4.

[5] = Day 28-35, % of birds at day 8 re-count

`CO[C@@]1(NC(=O)Cc2cccs2)C(=O)N2C(C(=O)O)=C(COC(N)=O)CS[C@@H]21` [cefoxitin] gave an MIC (MRSA 81M) of 100 µg/mL (≈ 234 µM) and an MIC (MRSA LA) of 60 µg/mL (≈ 140 µM).

For `CC[C@@H](C(=O)[C@@H](C)[C@@H](O)[C@H](C)[C@@H]1O[C@@H]([C@@H](CC)C(=O)O)CC[C@@H]1C)[C@H]1O[C@]2(C=C[C@@H](O)[C@]3(CC[C@@](C)([C@H]4CC[C@](O)(CC)[C@H](C)O4)O3)O2)[C@H](C)C[C@@H]1C` [Salinomycin, salinomycin], the “Average percent caked litter” value [1] was 79%, the “Reduction in lesion score compared to NTC” value [2] was 50.6% and the Average lesion score ([2]; scale 0-4) was 0.80. For the same molecule, the “Total Mortality” value ([3]; Day 0-17, % of birds at day 8 re-count) was “(2.1%)”, the “Total Mortality” value ([3]; Day 0-17, birds dead) was 5 and the “Total Mortality” value ([3]; Day 0-35, % of birds at day 8 re-count) was “(5.4%)”. For the same molecule, the “NE Mortality” value ([3]; Day 0-35, birds dead) was 5, the “Total Mortality” value ([3]; Day 0-35, birds dead) was 13 and the “Total Mortality” value ([3]; Day 17-28, % of birds at day 8 re-count) was “(2.1%)”. The “NE Mortality” value ([3]; Day 17-28, birds dead) was 4, the “Total Mortality” value ([3]; Day 17-28, birds dead) was 5 and the “NE Mortality” value [3, 5] was “(0.4%)”. The “Total Mortality” value [3, 5] was “(1.2%)”, the “NE Mortality” value ([3]; Day 28-35, birds dead) was 1 and the “Total Mortality” value ([3]; Day 28-35, birds dead) was 3. The “Adj. F:G (adjusted feed-to-gain ratio)” value ([4]; D 0-17) was 1.287, the “F:G (feed-to-gain ratio)” value ([4]; D 0-17) was 1.320 and the Avg. daily gain ([4]; D 0-17) was 28.1 g/day. The Weight gain ([4]; D 0-17) was 0.479 kg, the “Adj. F:G (adjusted feed-to-gain ratio)” value ([4]; D 0-28) was 1.368 and the “F:G (feed-to-gain ratio)” value ([4]; D 0-28) was 1.656. For the same molecule, the Avg. daily gain ([4]; D 0-28) was 50.3 g/day, the Weight gain ([4]; D 0-28) was 1.407 kg and the “Adj. F:G (adjusted feed-to-gain ratio)” value ([4]; D 0-35) was 1.448. The “F:G (feed-to-gain ratio)” value ([4]; D 0-35) was 1.666, the Avg. daily gain ([4]; D 0-35) was 59.6 g/day and the Weight gain ([4]; D 0-35) was 2.087 kg. For the same molecule, the “Adj. F:G (adjusted feed-to-gain ratio)” value ([4]; D17-28) was 1.421, the “Difference in weight gain compared to NTC” value ([4]; D17-28) was −0.21% and the “F:G (feed-to-gain ratio)” value ([4]; D17-28) was 1.947. The “Weight gain less than NTC birds” value ([4]; D17-28) was 2 grams, the Avg. daily gain ([4]; D 17-28) was 84.4 g/day and the Weight gain ([4]; D 17-28) was 0.928 kg. The “Adj. F:G (adjusted feed-to-gain ratio)” value ([4]; D 28-35) was 1.654, the “F:G (feed-to-gain ratio)” value ([4]; D 28-35) was 1.691 and the Avg. daily gain ([4]; D 28-35) was 97.1 g/day. For the same molecule, the Weight gain ([4]; D 28-35) was 0.680 kg, the “Increase in the harvest weight (final pen weight) compared to NTC” value ([4]; day 35) was 18.2% and the Average pen weight ([4]; live pen weight at day 35) was 34.59 kg and 34.59a kg.
